The values below are quoted from earlier work in patent publication US20220323353A1, “BIODEGRADABLE DRUG-ELUTING EMBOLIC PARTICLES FOR DELIVERY OF THERAPEUTIC AGENTS” (Becton, Dickinson and Company, priority 2019, published 2022).

The structures appear in SMILES notation.

The data set relates to hepatocellular carcinoma. Conditions: administrated via the hepatic artery.

For the compound `COc1cccc2c1C(=O)c1c(O)c3c(c(O)c1C2=O)C[C@@](O)(C(=O)CO)C[C@@H]3O[C@H]1C[C@H](N)[C@H](O)[C@H](C)O1` [doxorubicin], the “antitumor activity in hepatocellular carcinoma patients” value is “antitumor effects and partial response”.
